Data published in patent US20170190744A1 (Vicuron Pharmaceuticals, Inc., priority 2015, published 2017).
In brackets after ≈: the same amount, converted by molar mass. Several values for one entry are separate records, joined by “and”; a condition that tells them apart may be missing. Equal entries are not always repeated. Where two headings read alike, the source gives them in different places.

Experiments:
MRSA Staph. aureus 3817 = assay: Staph. aureus murine septicaemia, ED50; type: in vivo; details: Staphylococcus aureus, sc, 10 min
[1] = test system: 3797 S aureus clin. Isolate GISA; assay: MIC (microbiological activity); type: cell-based
G 16440 E coli iperperm = assay: MIC (microbiological activity); type: cell-based; details: repeat determinations
P450 = P450 induction after administration to rats; type: in vivo
[2] = test system: skin and soft tissue infections (SSTI); assay: Phase II trial in deep skin and soft tissue infections: clinical response; type: in vivo, human; details: for clinical success rate at FU: clinically-evaluable population; for clinical success rate, deep or complicated SSTI at baseline: exploratory subanalysis
Experimental: This randomized, controlled study evaluated the safety and efficacy of two dose regimens of dalbavancin.
There were 62 patients randomized into the study; all received at least one dose of study medication. Four study populations were evaluated for safety and efficacy and were defined as follows: The intent-to-treat (ITT) population included all patients who received at least one dose of study drug (all randomized study subjects).
The effectiveness of the three treatment regimens was determined by assessing the patients' clinical response and the documented or presumed microbiological responses. The primary efficacy endpoint was clinical response at the follow-up visit for the clinically evaluable population. Clinical response, for both EOT and FU visits, was categorized as success (cure or improvement) or failure (including indeterminate results). Patients classified as successes must not have received additional systemic antibacterial treatment for their infection. Failure was defined as persistence of one or more local or systemic signs and symptoms of SSTI such that treatment with new or additional systemic antibacterial agents was required for the SSTI.

Gram-positive pathogen = assay: Phase II SSTI trial: microbiologic response, all organisms; type: in vivo, human; details: microbiologically-evaluable population
Experimental: Microbiological outcome, a secondary efficacy variable, was assessed in the subpopulation of patients who had microbiologically documented SSTI (i.e., at least one identified baseline pathogen). A microbiologic response was assessed for each Gram-positive pathogen identified at baseline (i.e., eradication, presumed eradication, persistence, presumed persistence). For patients for whom follow-up cultures were not performed, the microbiologic responses for baseline pathogens were presumed on the basis of the clinical response. Microbiologic response by patient at the EOT and FU visits was graded as success (i.e., all Gram-positive organisms eradicated or presumed eradicated) or failure (i.e., at least one Gram-positive organism persisted or presumed to have persisted, multiple pathogens with partial eradication). At both the EOT and FU visits, colonization and superinfection were assessed. At the FU visit, a patient's bacteriological response could also include recurrence.

S. aureus [3] = assay: MIC of study organisms (NCCLS microdilution); type: cell-based; details: for MBC: Staphylococcus aureus
Experimental: (§1) MICs were determined in MHB by standard NCCLS microdilution techniques. […] All MICs were performed at least in duplicate.

S. pneumoniae [4] = assay: MIC of study organisms (NCCLS microdilution); type: cell-based; details: five pneumococcal organisms
Experimental: as §1

S. aureus [5] = assay: MIC in broth, serum, serum ultrafiltrate and albumin (protein binding); type: cell-based; details: Staphylococcus aureus
Text: This degree of binding was considered in subsequent pharmacodynamic analyses. The degree of binding in human serum would be estimated to be 96%.

S. pneumoniae [6] = assay: Murine thigh-infection model; type: in vivo, mice; details: for 1 Log Kill mg/kg/72 h / 2 Log Kill mg/kg/72 h: q 72 h regimen; for 1 log kill dose / 2 log kill dose: total dose over 6 days
Experimental: (§2) Each point represents the mean of 4 thighs. Five dose levels, ranging 16-fold were used.
(§3) Five different doses (two-fold increases) were used. Study against S. aureus utilized total dose (mg/kg/6 d) levels ranging from 30 to 480 mg/kg/6 d. […] Each point represents the mean of 4 thighs.
(§4) Each point represents the mean of four thighs.
Each point represents the mean value from 4 thighs. The static dose, and the doses associated with a 1 and 2 log kill were calculated from the parameters estimated by non-linear regression using the Hill equation.

S. aureus [7] = assay: Murine thigh-infection model; type: in vivo, mice; details: for 1 Log Kill mg/kg/72 h / 2 Log Kill mg/kg/72 h: q 72 h regimen; for 1 log kill dose: SA29213, total dose over 6 days
Experimental: as §2, §3, §4

[8] = both, human, in vivo
Experimental: Male and female subjects between ages 18 and 80 were eligible for enrollment. Subjects had to be within −10% to +50% of ideal body weight for their sex, height, and body frame.
The peak concentrations (Cmax) were obtained directly from the observed data. The area under the plasma concentration-time curve (AUC) were calculated using the linear trapezoidal rule.

S. aureus [9] = assay: MIC of study organisms (NCCLS microdilution); type: cell-based
[10] = net static effect, 1 or 2 log kill

CN[C@H]1C(=O)N[C@@H]2Cc3ccc(cc3)Oc3cc4cc(c3O[C@@H]3O[C@H](C(=O)O)[C@@H](O)[C@H](O)[C@H]3NC(=O)CCCCCCCCC(C)C)Oc3ccc(cc3Cl)[C@@H](O)[C@@H]3NC(=O)[C@H](NC(=O)[C@@H]4NC(=O)[C@@H](NC2=O)c2cc(cc(O)c2Cl)Oc2cc1ccc2O)c1ccc(O)c(c1)-c1c(O[C@H]2O[C@H](CO)[C@@H](O)[C@H](O)[C@@H]2O)cc(O)cc1[C@@H](C(=O)NCCCN(C)C)NC3=O [Dalbavancin]
ED50 (MRSA Staph. aureus 3817): 0.7 mg/kg
MIC [1]: 2 µg/mL (≈ 1.1 µM)
MIC (G 16440 E coli iperperm): 16 µg/mL (≈ 8.81 µM)
P450 induction (P450): did not induce any P450 activity
clinical success rate at FU ([2]; single-dose dalbavancin (1100 mg IV day 1)): 61.5%
clinical success rate at FU ([2]; two-dose dalbavancin (1 g IV day 1, 500 mg IV day 8)): 94.1% and 94%
clinical success rate, deep or complicated SSTI at baseline ([2]; single-dose dalbavancin): 58.3%
clinical success rate, deep or complicated SSTI at baseline ([2]; two-dose dalbavancin): 93.8%
eradication/presumed eradication rate at FU, all organisms (Gram-positive pathogen; single-dose dalbavancin): 58%
microbiologic success rate at EOT (Gram-positive pathogen; single-dose dalbavancin): 38.5%
microbiologic success rate at FU (Gram-positive pathogen; single-dose dalbavancin): 27.3%
eradication/presumed eradication rate at FU, all organisms (Gram-positive pathogen; two-dose dalbavancin): 92%
microbiologic success rate at EOT (Gram-positive pathogen; two-dose dalbavancin): 72.7%
microbiologic success rate at FU (Gram-positive pathogen; two-dose dalbavancin): 72.7%
MBC (S. aureus [3]; S. aureus strain 307109): 0.12 µg/mL
MBC (S. aureus [3]; SA31005): 0.12 µg/mL
MIC range (S. aureus [3]; six S. aureus isolates): 0.06 to 0.12 µg/mL
MIC range (S. pneumoniae [4]): 0.004 to 0.03 µg/mL
MIC (S. aureus [5]; MRSA, read-out: MIC 95% Human Albumin, S. aureus strain MRSA): 8 µg/mL (≈ 4.4 µM)
MIC (S. aureus [5]; MRSA, read-out: MIC 95% Human Serum, S. aureus strain MRSA): 8 µg/mL (≈ 4.4 µM)
MIC (S. aureus [5]; MRSA, read-out: MIC 95% Mouse Serum Ultrafiltrate, S. aureus strain MRSA): 0.5 µg/mL (≈ 0.275 µM)
MIC (S. aureus [5]; MRSA, read-out: MIC 95% Mouse Serum, S. aureus strain MRSA): 32 µg/mL (≈ 17.6 µM)
MIC (S. aureus [5]; human serum and albumin): 8 µg/mL (≈ 4.4 µM)
MIC (S. aureus [5]; mouse serum ultrafiltrate): 0.5 µg/mL (≈ 0.275 µM)
MIC (S. aureus [5]; read-out: MIC 95% Human Albumin, S. aureus strain 25923): 8 µg/mL (≈ 4.4 µM)
MIC (S. aureus [5]; read-out: MIC 95% Human Serum, S. aureus strain 25923): 8 µg/mL (≈ 4.4 µM)
MIC (S. aureus [5]; read-out: MIC 95% Mouse Serum Ultrafiltrate, S. aureus strain 25923): 0.5 µg/mL (≈ 0.275 µM)
MIC (S. aureus [5]; read-out: MIC 95% Mouse Serum, S. aureus strain 25923): 32 µg/mL (≈ 17.6 µM)
MIC (S. aureus [5]; read-out: MIC (arithmetic), 95% mouse serum): 32 µg/mL (≈ 17.6 µM)
1 Log Kill mg/kg/72 h (S. pneumoniae [6]; Mean ± SD of S. pneumoniae strains): 0.93 ± 0.24 mg/kg/72 h
24 h AUC/MIC values lower with every 72 h than every 24 h dosing (S. pneumoniae [6]; S. pneumoniae and S. aureus, static dose, 1 and 2 log kill): 1.3 to 2.4 fold
1 Log Kill mg/kg/72 h (S. pneumoniae [6]; SP1199, 6 days of therapy): 0.85 mg/kg/72 h
2 Log Kill mg/kg/72 h (S. pneumoniae [6]; SP1199, 6 days of therapy): 0.99 mg/kg/72 h
1 Log Kill mg/kg/72 h (S. pneumoniae [6]; SP1325, 6 days of therapy): 0.99 mg/kg/72 h
1 Log Kill mg/kg/72 h (S. pneumoniae [6]; SP1396, 6 days of therapy): 0.61 mg/kg/72 h
2 Log Kill mg/kg/72 h (S. pneumoniae [6]; SP1396, 6 days of therapy): 0.69 mg/kg/72 h
1 log kill dose (S. pneumoniae [6]; SP10813, q 12 h): 2.8 mg/kg
2 log kill dose (S. pneumoniae [6]; SP10813, q 12 h): 3.5 mg/kg
1 log kill dose (S. pneumoniae [6]; SP10813, q 24 h): 1.54 mg/kg
2 log kill dose (S. pneumoniae [6]; SP10813, q 24 h): 1.75 mg/kg
1 log kill dose (S. pneumoniae [6]; SP10813, q 72 h): 0.77 mg/kg
2 log kill dose (S. pneumoniae [6]; SP10813, q 72 h): 0.82 mg/kg
1 Log Kill mg/kg/72 h (S. pneumoniae [6]; SP10813, 6 days of therapy): 0.77 mg/kg/72 h
2 Log Kill mg/kg/72 h (S. pneumoniae [6]; SP10813, 6 days of therapy): 0.82 mg/kg/72 h
drop in cfu over the 6 day study (S. pneumoniae [6]; all strains): > 4 log10
less drug required against pneumococci than S. aureus, based upon 24 h AUC/MIC (S. pneumoniae [6]; every 24 h dosing): 12 to 23 fold
free drug 24 h AUC/MIC associated with a static effect (S. pneumoniae [6]; every 72 h dosing, 6 days): 7.2±4.5
free drug AUC/MIC over the 6 days of therapy required for efficacy (S. pneumoniae [6]; [10]): ~100
reduction in doses necessary for efficacy in presence of neutrophils (S. pneumoniae [6]; normal vs neutropenic mice, 24-hour dosing, not statistically significant): 1.7- to 2.1 fold
1 Log Kill mg/kg/72 h (S. aureus [7]; MRSA, 6 days of therapy): 62 mg/kg/72 h
2 Log Kill mg/kg/72 h (S. aureus [7]; MRSA, 6 days of therapy): 85 mg/kg/72 h
1 Log Kill mg/kg/72 h (S. aureus [7]; Mean ± SD of S. aureus strains): 94 ± 46 mg/kg/72 h
2 Log Kill mg/kg/72 h (S. aureus [7]; Mean ± SD of S. aureus strains): 120 ± 54 mg/kg/72 h
1 log kill dose (S. aureus [7]; q 36 h): 36 mg/kg
1 log kill dose (S. aureus [7]; q 72 h): 31 mg/kg
1 Log Kill mg/kg/72 h (S. aureus [7]; SA33591, 6 days of therapy): 93 mg/kg/72 h
1 Log Kill mg/kg/72 h (S. aureus [7]; SA307109, 6 days of therapy): 34 mg/kg/72 h
2 Log Kill mg/kg/72 h (S. aureus [7]; SA307109, 6 days of therapy): 37 mg/kg/72 h
1 Log Kill mg/kg/72 h (S. aureus [7]; SA Smith, 6 days of therapy): 95 mg/kg/72 h
drop in cfu over the 6 day study (S. aureus [7]; all strains): > 4 log10
free drug AUC/MIC over the 6 days of therapy required for efficacy (S. aureus [7]; [10]): ~1000
AUC ([8]; 500 mg): 24376 ± 6615 µg·h/mL
AUC14 ([8]; 1000 mg): ~22000′ mg · h/L
AUC42 ([8]; 1000 mg): 23137 ± 3326 µg·h/mL
MBC relative to MIC (S. aureus [9]; S. aureus, MBC higher than MIC): 2 to 4 fold
MBC (S. aureus [9]; SA25923): 0.50 µg/mL
